{
  "source": "patent US6433220B1",
  "about": "(RPC Inc., priority 1998, dated 2002)",
  "key": {"[1]": {"conditions": "cited from earlier work; for EN (normalized solvent polarity parameter): water and tetramethylsilane as extreme reference solvents; for ET (solvent polarity parameter): solvatochromic absorption of betaine dye"}, "[2]": {"conditions": "cited from earlier work"}, "[3]": {"assay": "Solubility of cobalt ion in the combination solvent", "format": "physicochemical", "conditions": "cyclohexanone/water combination solvent", "text": "The above profound and unexpected attributes (considerable increase of dibasic acid solubility combined with considerable decrease of cobalt ion solubility in the novel combination solvent) are primarily responsible for a clean extraction of the cobalt ion with water from the rest of the reaction mixture, which remains dissolved in the combination solvent of the instant invention."}},
  "note": "Where two headings read alike, the source gives them in different places.",
  "data": [
    {"molecule": "CC(=O)O", "note": "[Acetic acid]", "values": [
      {"measurement": "EN (normalized solvent polarity parameter)", "setting": "[1]", "value": 0.648}
    ]},
    {"molecule": "C1CCCCC1", "note": "[Cyclohexane]", "values": [
      {"measurement": "EN (normalized solvent polarity parameter)", "setting": "[1]", "value": 0.006}
    ]},
    {"molecule": "OC1CCCCC1", "note": "[Cyclohexanol]", "values": [
      {"measurement": "EN (normalized solvent polarity parameter)", "setting": "[1]", "value": 0.500}
    ]},
    {"molecule": "O=C1CCCCC1", "note": "[Cyclohexanone]", "values": [
      {"measurement": "EN (normalized solvent polarity parameter)", "setting": "[1]", "value": 0.281},
      {"measurement": "mol % CHxO (solubility of cyclohexanone in water)", "setting": "[2]; 20 °C", "value": 1.98, "unit": "% mol %"},
      {"measurement": "wt % CHxO (solubility of cyclohexanone in water)", "setting": "[2]; 20 °C", "value": 10.00, "unit": "% wt %"},
      {"measurement": "mol % CHxO (solubility of cyclohexanone in water)", "setting": "[2]; 25 °C", "value": 1.85, "unit": "% mol %"},
      {"measurement": "wt % CHxO (solubility of cyclohexanone in water)", "setting": "[2]; 25 °C", "value": 9.39, "unit": "% wt %"},
      {"measurement": "mol % CHxO (solubility of cyclohexanone in water)", "setting": "[2]; 30 °C", "value": 1.73, "unit": "% mol %"},
      {"measurement": "wt % CHxO (solubility of cyclohexanone in water)", "setting": "[2]; 30 °C", "value": 8.83, "unit": "% wt %"},
      {"measurement": "mol % CHxO (solubility of cyclohexanone in water)", "setting": "[2]; 50 °C", "value": 1.43, "unit": "% mol %"},
      {"measurement": "wt % CHxO (solubility of cyclohexanone in water)", "setting": "[2]; 50 °C", "value": 7.39, "unit": "% wt %"},
      {"measurement": "mol % CHxO (solubility of cyclohexanone in water)", "setting": "[2]; 70 °C", "value": 1.34, "unit": "% mol %"},
      {"measurement": "wt % CHxO (solubility of cyclohexanone in water)", "setting": "[2]; 70 °C", "value": 6.95, "unit": "% wt %"},
      {"measurement": "mol % CHxO (solubility of cyclohexanone in water)", "setting": "[2]; 90 °C", "value": 1.44, "unit": "% mol %"},
      {"measurement": "wt % CHxO (solubility of cyclohexanone in water)", "setting": "[2]; 90 °C", "value": 7.44, "unit": "% wt %"}
    ]},
    {"molecule": "CCO", "note": "[Ethanol]", "values": [
      {"measurement": "EN (normalized solvent polarity parameter)", "setting": "[1]", "value": 0.654}
    ]},
    {"molecule": "CO", "note": "[Methanol]", "values": [
      {"measurement": "EN (normalized solvent polarity parameter)", "setting": "[1]", "value": 0.762}
    ]},
    {"molecule": "O", "note": "[Water]", "values": [
      {"measurement": "ET (solvent polarity parameter)", "setting": "[1]", "value": 63.1, "unit": "kcal/mol"},
      {"measurement": "EN (normalized solvent polarity parameter)", "setting": "[1]", "value": 1.000}
    ]},
    {"molecule": "c1ccc(Oc2ccccc2)cc1", "note": "[diphenyl ether]", "values": [
      {"measurement": "ET (solvent polarity parameter)", "setting": "[1]", "value": 35.3, "unit": "kcal/mol"}
    ]},
    {"molecule": "CCCCCC", "note": "[n-Hexane]", "values": [
      {"measurement": "EN (normalized solvent polarity parameter)", "setting": "[1]", "value": 0.009}
    ]},
    {"molecule": "cobalt ion", "values": [
      {"measurement": "solubility of the cobalt ion in the novel combination solvent", "setting": "[3]", "value": "decreases considerably"}
    ]}
  ]
}
